The target of experiment [1] is T1, Serine/threonine-protein kinase DCLK3 (Homo sapiens) (UniProt Q9C098).
T1 sequence (whole entry): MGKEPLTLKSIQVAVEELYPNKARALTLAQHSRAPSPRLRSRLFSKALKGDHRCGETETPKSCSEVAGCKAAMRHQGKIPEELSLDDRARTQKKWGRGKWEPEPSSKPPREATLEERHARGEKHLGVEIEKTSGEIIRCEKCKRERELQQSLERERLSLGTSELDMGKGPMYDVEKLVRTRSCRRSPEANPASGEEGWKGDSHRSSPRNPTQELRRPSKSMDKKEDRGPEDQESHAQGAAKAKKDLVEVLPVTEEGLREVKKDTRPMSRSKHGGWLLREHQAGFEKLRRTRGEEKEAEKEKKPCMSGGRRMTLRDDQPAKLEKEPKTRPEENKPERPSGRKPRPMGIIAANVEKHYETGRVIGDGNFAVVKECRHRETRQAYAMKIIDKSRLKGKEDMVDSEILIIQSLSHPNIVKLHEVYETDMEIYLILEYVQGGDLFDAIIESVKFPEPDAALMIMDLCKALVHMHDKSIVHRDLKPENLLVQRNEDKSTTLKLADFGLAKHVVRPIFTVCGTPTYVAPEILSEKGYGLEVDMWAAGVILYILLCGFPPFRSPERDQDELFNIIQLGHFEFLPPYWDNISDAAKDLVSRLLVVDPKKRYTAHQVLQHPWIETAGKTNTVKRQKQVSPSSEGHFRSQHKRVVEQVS
The experiment is described as follows: Selectivity interaction (Ambit KINOMEscan and KiNATiv profiling in Jurkat cells) EUB0000090b DCLK3. In kind it is cell-based. The following applies: at 1 µM.

Experiment [2] deals with Serine/threonine-protein kinase NIM1 (Homo sapiens, UniProt Q8IY84). The experiment is described as follows: Selectivity interaction (KinomeScan (DiscoverX)) EUB0001079a NIM1K. The following applies: at 1 µM.
Chain of Serine/threonine-protein kinase NIM1 (Q8IY84 whole entry): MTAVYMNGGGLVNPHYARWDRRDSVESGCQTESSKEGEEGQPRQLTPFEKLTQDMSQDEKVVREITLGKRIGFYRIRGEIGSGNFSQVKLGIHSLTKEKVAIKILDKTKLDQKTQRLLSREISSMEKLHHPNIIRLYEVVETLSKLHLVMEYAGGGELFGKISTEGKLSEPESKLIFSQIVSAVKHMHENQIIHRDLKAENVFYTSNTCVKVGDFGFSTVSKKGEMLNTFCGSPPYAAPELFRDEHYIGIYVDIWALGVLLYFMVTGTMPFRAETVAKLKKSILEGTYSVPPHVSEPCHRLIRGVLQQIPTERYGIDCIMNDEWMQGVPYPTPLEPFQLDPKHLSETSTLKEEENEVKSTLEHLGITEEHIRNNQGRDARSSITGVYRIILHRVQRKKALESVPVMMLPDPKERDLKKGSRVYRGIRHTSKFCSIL
The target in experiment [3] is Serine/threonine-protein kinase PAK 4 (Homo sapiens, UniProt O96013). The experiment is described as follows: Selectivity interaction (KinomeScan (DiscoverX)) EUB0001079a PAK4. The conditions noted are these: at 1 µM.
Chain of Serine/threonine-protein kinase PAK 4 (O96013 whole entry, looked up): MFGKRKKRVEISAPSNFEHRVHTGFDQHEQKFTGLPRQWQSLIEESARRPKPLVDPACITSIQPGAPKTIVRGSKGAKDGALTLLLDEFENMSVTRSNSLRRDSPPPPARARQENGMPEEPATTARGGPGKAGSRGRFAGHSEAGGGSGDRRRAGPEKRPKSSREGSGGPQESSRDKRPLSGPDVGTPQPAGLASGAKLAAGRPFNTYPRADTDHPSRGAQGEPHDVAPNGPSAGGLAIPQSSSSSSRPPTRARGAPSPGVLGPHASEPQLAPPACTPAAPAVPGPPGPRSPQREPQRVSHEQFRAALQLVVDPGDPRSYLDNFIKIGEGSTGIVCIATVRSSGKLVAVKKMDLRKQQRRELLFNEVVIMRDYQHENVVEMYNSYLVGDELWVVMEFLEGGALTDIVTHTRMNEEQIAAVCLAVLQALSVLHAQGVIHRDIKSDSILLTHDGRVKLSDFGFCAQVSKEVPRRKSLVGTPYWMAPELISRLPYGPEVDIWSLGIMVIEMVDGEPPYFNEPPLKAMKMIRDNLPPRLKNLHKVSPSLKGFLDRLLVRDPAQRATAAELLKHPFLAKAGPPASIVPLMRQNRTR
Experiment [4] deals with Atypical kinase COQ8A, mitochondrial (Homo sapiens, UniProt Q8NI60). The experiment is described as follows: Selectivity interaction (KinomeScan (DiscoverX)) EUB0000092b ADCK3. The conditions noted are these: at 10 µM.
Chain of Atypical kinase COQ8A, mitochondrial (Q8NI60 163-647 limits assumed): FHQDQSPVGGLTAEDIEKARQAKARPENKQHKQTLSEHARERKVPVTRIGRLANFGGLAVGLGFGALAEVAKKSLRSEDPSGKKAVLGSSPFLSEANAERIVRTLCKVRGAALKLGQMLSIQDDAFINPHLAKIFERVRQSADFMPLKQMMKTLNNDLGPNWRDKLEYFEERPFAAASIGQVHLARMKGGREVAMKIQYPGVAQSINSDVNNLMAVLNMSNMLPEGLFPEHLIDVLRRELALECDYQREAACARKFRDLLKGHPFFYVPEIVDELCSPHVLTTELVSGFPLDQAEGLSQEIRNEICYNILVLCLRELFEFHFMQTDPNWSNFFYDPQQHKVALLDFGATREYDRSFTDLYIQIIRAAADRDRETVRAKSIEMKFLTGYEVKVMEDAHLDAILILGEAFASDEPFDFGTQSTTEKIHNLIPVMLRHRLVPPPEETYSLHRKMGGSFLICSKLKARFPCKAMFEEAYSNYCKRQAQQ
The target of experiment [5] is T2, Rhodopsin kinase GRK7 (Homo sapiens) (UniProt Q8WTQ7).
T2 sequence (whole entry): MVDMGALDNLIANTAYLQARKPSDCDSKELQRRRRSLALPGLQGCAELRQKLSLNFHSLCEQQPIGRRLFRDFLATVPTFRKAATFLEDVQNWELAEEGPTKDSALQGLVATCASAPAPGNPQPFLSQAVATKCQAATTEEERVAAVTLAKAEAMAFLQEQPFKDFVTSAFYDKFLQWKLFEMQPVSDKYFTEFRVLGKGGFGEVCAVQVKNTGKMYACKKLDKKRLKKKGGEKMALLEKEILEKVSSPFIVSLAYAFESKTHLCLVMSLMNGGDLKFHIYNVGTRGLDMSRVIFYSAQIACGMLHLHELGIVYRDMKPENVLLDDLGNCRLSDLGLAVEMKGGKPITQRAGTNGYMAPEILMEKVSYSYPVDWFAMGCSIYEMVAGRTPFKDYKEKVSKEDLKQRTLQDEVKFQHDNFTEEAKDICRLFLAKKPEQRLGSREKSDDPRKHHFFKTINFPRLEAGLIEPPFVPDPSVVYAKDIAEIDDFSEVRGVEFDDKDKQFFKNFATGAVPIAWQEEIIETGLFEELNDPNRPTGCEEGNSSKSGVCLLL
The experiment is described as follows: Selectivity interaction (KinomeScan (DiscoverX)) EUB0000092b GRK7. The conditions noted are these: at 10 µM.

For experiment [6], the target named is T3, Serine/threonine-protein kinase Nek2 (Homo sapiens) (UniProt P51955).
T3 sequence (whole entry): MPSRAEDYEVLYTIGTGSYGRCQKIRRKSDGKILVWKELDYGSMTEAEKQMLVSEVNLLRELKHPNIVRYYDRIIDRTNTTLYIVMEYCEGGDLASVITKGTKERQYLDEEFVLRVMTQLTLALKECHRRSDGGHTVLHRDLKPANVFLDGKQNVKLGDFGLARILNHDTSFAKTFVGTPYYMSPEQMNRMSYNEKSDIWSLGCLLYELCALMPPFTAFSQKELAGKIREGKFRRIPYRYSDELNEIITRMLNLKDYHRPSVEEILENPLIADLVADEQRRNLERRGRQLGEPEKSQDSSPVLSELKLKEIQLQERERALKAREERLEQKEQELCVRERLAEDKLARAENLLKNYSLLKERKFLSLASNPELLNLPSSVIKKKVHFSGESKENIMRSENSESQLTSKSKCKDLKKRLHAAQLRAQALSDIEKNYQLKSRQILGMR
The experiment is described as follows: Selectivity interaction (Kinase panel (DSF assay)) EUB0001559a NEK2. A general note: Differential scanning fluorimetry follows unfolding on heating by fluorescence.

The target in experiment [7] is T4, Cyclin-dependent kinase-like 5 (Homo sapiens) (UniProt O76039).
T4 sequence (whole entry): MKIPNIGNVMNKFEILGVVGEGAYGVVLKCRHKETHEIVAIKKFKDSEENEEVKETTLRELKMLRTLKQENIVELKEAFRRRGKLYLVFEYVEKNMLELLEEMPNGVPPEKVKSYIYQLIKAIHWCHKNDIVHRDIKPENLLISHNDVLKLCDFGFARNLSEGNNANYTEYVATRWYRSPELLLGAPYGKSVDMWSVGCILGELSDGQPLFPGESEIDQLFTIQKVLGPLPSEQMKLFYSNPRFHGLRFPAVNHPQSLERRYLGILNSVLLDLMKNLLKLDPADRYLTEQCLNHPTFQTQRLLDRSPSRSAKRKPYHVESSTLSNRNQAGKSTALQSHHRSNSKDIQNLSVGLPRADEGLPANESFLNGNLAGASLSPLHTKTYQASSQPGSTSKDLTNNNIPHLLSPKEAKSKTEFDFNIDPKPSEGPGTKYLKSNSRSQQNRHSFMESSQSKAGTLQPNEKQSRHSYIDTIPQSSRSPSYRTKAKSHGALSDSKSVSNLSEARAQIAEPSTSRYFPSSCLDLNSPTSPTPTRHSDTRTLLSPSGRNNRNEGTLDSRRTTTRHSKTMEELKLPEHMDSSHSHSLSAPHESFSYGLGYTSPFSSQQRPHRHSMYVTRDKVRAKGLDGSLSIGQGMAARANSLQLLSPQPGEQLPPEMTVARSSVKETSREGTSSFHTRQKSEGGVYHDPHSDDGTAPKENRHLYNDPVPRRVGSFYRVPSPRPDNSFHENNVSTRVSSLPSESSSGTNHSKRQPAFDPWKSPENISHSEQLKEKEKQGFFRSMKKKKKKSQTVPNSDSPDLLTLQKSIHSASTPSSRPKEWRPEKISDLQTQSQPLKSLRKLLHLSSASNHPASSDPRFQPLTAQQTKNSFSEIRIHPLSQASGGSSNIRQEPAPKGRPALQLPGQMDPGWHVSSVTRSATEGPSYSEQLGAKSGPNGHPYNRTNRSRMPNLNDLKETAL
The experiment is described as follows: Selectivity interaction (KinomeScan (DiscoverX)) EUB0000595a CDKL5. The conditions noted are these: at 10 µM.

Experiment [8] addresses Serine/threonine-protein kinase Chk2 (Homo sapiens) (UniProt O96017). The experiment is described as follows: Selectivity interaction (KinomeScan (DiscoverX)) EUB0000618a CHEK2. The conditions noted are these: at 10 µM.

Chain of Serine/threonine-protein kinase Chk2 (Homo sapiens) (O96017 whole entry): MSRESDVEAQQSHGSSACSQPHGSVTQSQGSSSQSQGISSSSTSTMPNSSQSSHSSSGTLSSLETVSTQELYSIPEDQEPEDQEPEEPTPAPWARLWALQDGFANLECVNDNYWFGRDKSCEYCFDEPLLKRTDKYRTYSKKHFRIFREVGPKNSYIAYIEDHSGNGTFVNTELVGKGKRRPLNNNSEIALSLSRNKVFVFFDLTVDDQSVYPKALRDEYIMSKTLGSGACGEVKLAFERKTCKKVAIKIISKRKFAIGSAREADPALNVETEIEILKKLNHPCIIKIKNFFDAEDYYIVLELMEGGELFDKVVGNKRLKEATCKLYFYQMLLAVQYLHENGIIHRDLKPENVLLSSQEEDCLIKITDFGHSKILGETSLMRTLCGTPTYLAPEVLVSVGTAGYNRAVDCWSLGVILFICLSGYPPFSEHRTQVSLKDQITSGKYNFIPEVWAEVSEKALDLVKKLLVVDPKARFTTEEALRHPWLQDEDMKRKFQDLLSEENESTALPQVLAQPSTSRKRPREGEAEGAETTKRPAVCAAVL

In turn, `CN(C)C/C=C/C(=O)Nc1ccc(C(=O)N2CCCC(Nc3ncc(Cl)c(-c4c[nH]c5ccccc45)n3)C2)cc1` (stereo not drawn) had a % of control in experiment [1] of 76%. As for `Nc1cnc(N2CCc3cc(S(=O)(=O)Nc4c(F)cc(Cl)cc4F)cc(N4CCCC4=O)c32)nc1` [TP-020n], the % of control in experiment [2] was found to be 100%; in experiment [3], 89%. Turning to `CCC(=O)N1CCN(c2ccc(-n3c(=O)ccc4cnc5ccc(-c6cnc7ccccc7c6)cc5c43)cc2C(F)(F)F)CC1`, the results for the % of control in experiment [4] and in experiment [5] were 17% and 100%, respectively. In experiment [6], `CN(C(=O)c1cnn2cccnc12)c1cc2c(cc1N1CCOCC1)C(=O)N(C[C@@H](F)C(C)(C)O)C2` displayed a dTM of 2.1 K. Compound `COCC(=O)NC/C=C/c1ccc2ncnc(Nc3ccc(Oc4ccc(C)nc4)c(C)c3)c2c1` [CP-724714] displayed a % of control in experiment [7] of 100%. Take `O[C@H]1CC[C@H](Nc2ncc3nc(Nc4c(F)cc(F)cc4F)n([C@H]4CCOC4)c3n2)CC1`: in experiment [8], the % of control stood at 100%.

Values taken from ChEMBL document CHEMBL5465560, “Selectivity Literature for EUbOPEN Chemogenomic Library” (2024).
